# Results: ChEMBL document CHEMBL1149751, “Bioactive constituents from the twigs of Asimina parviflora” (J Nat Prod, 1992)
# Columns and labels:
# HT-29 = assay: Cytotoxicity against human HT-29 cells after 7 days; assay type: functional; details: for EC50: Homo sapiens, HT-29, 168 h, read-out: ED50 (the source's name)
# MCF7 = assay: Cytotoxicity against human MCF7 cells after 7 days; assay type: functional; details: MCF7, 168 h, read-out: ED50 (the source's name)
# A549 = assay: Cytotoxicity against human A549 cells after 7 days; assay type: functional; details: for EC50: Homo sapiens, A549, 168 h, read-out: ED50 (the source's name)
# [1] = Toxicity in brine shrimp; assay type: organism-based; details: artemia, in vivo
SMILES,EC50 (HT-29),EC50 (MCF7),EC50 (A549),LC50 [1],ED50 (HT-29),ED50 (A549)
CCCCCCCCCCCCCCC/C=C\CCCCC(N)=O,< 0.01 µg/mL,2.91 µg/mL,3.16 µg/mL,2.45 µg/mL,,
COc1c(OC)c2c(C)cc3c(O)cccc3c2[nH]c1=O [ASIMICILONE],3.25 µg/mL,7.22 µg/mL,2.13 µg/mL,2.15 µg/mL,,
CCCCCCCCCCC(O)C1CCC(C2CCC(C(O)CCCCCCCC[C@H](O)CC3=C[C@@H](C)OC3=O)O2)O1 (stereo partly drawn) [ASIMICIN],,,,,<1 ×10⁻¹⁵ ug/ml,8.43 ×10⁻⁴ ug/ml
CCCCCCCCCC[C@@H](O)[C@H]1CC[C@H]([C@H]2CC[C@H]([C@H](O)CCCCCCCCCC[C@@H](O)CC3=C[C@H](C)OC3=O)O2)O1 [ASIMICIN],,,,0.025 µg/mL,,
COc1cccc2c1C(=O)c1c(O)c3c(c(O)c1C2=O)C[C@@](O)(C(=O)CO)C[C@@H]3O[C@H]1C[C@H](N)[C@H](O)[C@H](C)O1 [DOXORUBICIN],0.00445 µg/mL,0.231 µg/mL,,0.088 µg/mL,,5.04 ×10⁻⁴ ug/ml
CC[C@H](CC[C@@H](C)[C@H]1CC[C@H]2[C@@H]3CC=C4C[C@@H](O[C@@H]5O[C@H](CO)[C@@H](O)[C@H](O)[C@H]5O)CC[C@]4(C)[C@H]3CC[C@]12C)C(C)C [SITOGLUSIDE],0.444 µg/mL,44.4 µg/mL,4.73 µg/mL,0.14 µg/mL,,
COc1cc([C@H]2OC[C@H]3[C@@H]2CO[C@@H]3c2cc(OC)c(O)c(OC)c2)cc(OC)c1O [SYRINGARESINOL],0.227 µg/mL,30.3 µg/mL,13.9 µg/mL,0.65 µg/mL,,
